The conditions of data set [1]: pH=6.
A short description of the next data set: physchem. As to conditions: pH 6.
The format of data set [2] is physicochemical. The following applies: pH 0.

The source of these data is patent publication US20030065015A1 (priority 2001, published 2003).

Several values for one entry are separate records, joined by “and”; a condition that tells them apart may be missing. Equal values may be shown once.

In data set [1], `C[n+]1ccccc1/C=N/O` [2-PAM chloride, 2-[(hydroxyimino)methyl]-1-methylpyrdinium chloride] showed a partition coefficient of 0.79. This compound gave a logD in “physchem” of -3.12.

As for `CN(C)C(=O)Oc1ccc[n+](C)c1.[Br-]` [Pyridostigmine Bromide, 3-dimethylaminocarbonyloxy-N-methylpyridinium bromide], in data set [2], the Ko/a was 1.9 × 10^−3 and 2.3 × 10^−2 and 2.0 × 10^−2.
